Test results from US10538532B2, “Hepatitis B antiviral agents” (ENANTA PHARMACEUTICALS, INC., priority 2016, dated 2020).

Test system: HBV
Experiment: HepAD38 antiviral assay: reduction of viral product accumulation (virion DNA by qPCR, HBsAg or HBeAg by ELISA)
Assay type: cell-based, hepatitis B virus
Details: HepAD38 cells, five days after compound addition; concentration reducing viral product accumulation by 50% relative to no drug controls; read-out: HepAD38 EC50
Procedure, shortened: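 HepAD38 cells were washed free of tetracycline, plated at 35,000 cells/well and given compounds diluted 1:200 from DMSO. After 5 days, or 8 days with media and compound refreshed on d2 and d5, virion DNA was measured by qPCR and HBsAg or HBeAg by ELISA. EC50 is the concentration giving 50% reduction of viral product versus no-drug controls.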

| SMILES | EC50 |
| --- | --- |
| O=C(Nc1cc(F)c(F)c(F)c1)c1ccc(Cl)c(S(=O)(=O)C2CC3O[C@H]3C2)c1 (stereo partly drawn) [Example 86] | > 400 nM |
| COC(=O)C1=CON(Cc2ccccc2)C1[C@]1(O)CC2CC[C@@H](C1)[C@H]2S(=O)(=O)c1cc(C(=O)Nc2cc(F)c(F)c(F)c2)ccc1Cl (stereo partly drawn) [Example 216] | > 400 nM |

Same assay, conditions: Hepatitis B virus, HePAD38, 120 h, HepAD38 cells, five days after compound addition; concentration reducing viral product accumulation by 50% relative to no drug controls; read-out: HepAD38 EC50

| SMILES | EC50 |
| --- | --- |
| O=C(Nc1cc(F)c(F)c(F)c1)c1ccc(Cl)c(S[C@H]2C3CC[C@H]2C[C@](O)(CO)C3)c1 [Example 134] | 100 to 400 nM |
| O=C(Nc1cc(F)c(F)c(F)c1)c1ccc(Cl)c(S(=O)(=O)[C@H]2CC[C@](O)(CO)CC2)c1 [Example 109] | 100 to 400 nM |
| CCOC(=O)/C=C1/CC2CC[C@@H](C1)[C@H]2S(=O)(=O)c1cc(C(=O)Nc2cc(F)c(F)c(F)c2)ccc1Cl [Example 221] | 100 to 400 nM |
| CN1CCC(S(=O)(=O)c2cc(C(=O)Nc3cc(F)c(F)c(F)c3)ccc2Cl)CC1 [Example 96] | > 400 nM |
| CC1(C)OC[C@@]2(CC3CC[C@@H](C2)[C@H]3S(=O)(=O)c2cc(C(=O)Nc3cc(F)c(F)c(F)c3)ccc2Cl)O1 [Example 128] | 100 to 400 nM |
| O=C(Nc1cc(F)c(F)c(F)c1)c1ccc(Cl)c(S(=O)(=O)[C@H]2C3CC[C@H]2C[C@](O)(C#Cc2ccccn2)C3)c1 [Example 171] | < 100 nM |
| CC(C)(O)C(O)[C@]1(O)C2CCC1C[C@H](S(=O)(=O)c1cc(C(=O)Nc3cc(F)c(F)c(F)c3)ccc1Cl)C2 (stereo partly drawn) [Example 363] | < 100 nM |
| CCOC(=O)/C=C/[C@]1(O)CC2CC[C@@H](C1)[C@H]2S(=O)(=O)c1cc(C(=O)Nc2cc(F)c(F)c(F)c2)ccc1Cl [Example 222] | > 400 nM |
| CC(C)([C@H]1C[C@@H](O)C1)S(=O)(=O)c1cc(C(=O)Nc2cc(F)c(F)c(F)c2)ccc1Cl [Example 118] | 100 to 400 nM |
| C/[N+]([O-])=C\[C@]1(O)CC2CC[C@@H](C1)[C@H]2S(=O)(=O)c1cc(C(=O)Nc2cc(F)c(F)c(F)c2)ccc1Cl [Example 196] | < 100 nM |
| O=C(Nc1cc(F)c(F)c(F)c1)c1ccc(Cl)c(S(=O)(=O)[C@H]2C3C[C@@H]4C[C@H](C3)C[C@@H]2C4)c1 [Example 176] | > 400 nM |
| O=C(Nc1cc(F)c(F)c(F)c1)c1ccc(Cl)c(S(=O)(=O)C2CCCC(O)CC2)c1 (stereo not drawn) [Example 125] | 100 to 400 nM |
| COc1cccc(CO/N=C/[C@]2(O)CC3CC[C@@H](C2)[C@H]3S(=O)(=O)c2cc(C(=O)Nc3cc(F)c(F)c(F)c3)ccc2Cl)c1 [Example 237] | 100 to 400 nM |
| O=C(Nc1cc(F)c(F)c(F)c1)c1ccc(Cl)c(S(=O)(=O)[C@H]2C3CC[C@H]2C[C@@](O)(C#Cc2ccccn2)C3)c1 [Example 172] | 100 to 400 nM |
| CO[C@]1(CO)CC2CC[C@@H](C1)[C@H]2S(=O)(=O)c1cc(C(=O)Nc2cc(F)c(F)c(F)c2)ccc1Cl [Example 152] | < 100 nM |
| O=C(Nc1cc(F)c(F)c(F)c1)c1ccc(Cl)c(S(=O)(=O)[C@H]2C3CC[C@H]2C[C@](O)(C(=O)O)C3)c1 [Example 131] | > 400 nM |
| C[C@]1(O)CC[C@@H](S(=O)(=O)c2cc(C(=O)Nc3cc(F)c(F)c(F)c3)ccc2Cl)CC1 [Example 22] | 100 to 400 nM |
| CO/N=C/[C@]1(O)CC2CC[C@@H](C1)[C@H]2S(=O)(=O)c1cc(C(=O)Nc2cc(F)c(F)c(F)c2)ccc1Cl [Example 201] | < 100 nM |
| CCOC(=O)[C@@H](NC[C@]1(O)C2CCC1C[C@@H](S(=O)(=O)c1cc(C(=O)Nc3cc(F)c(F)c(F)c3)ccc1Cl)C2)C(C)C [Example 340] | > 400 nM |

| SMILES | EC50 |
| --- | --- |
| N#Cc1cc(NC(=O)c2ccc(Cl)c(S(=O)(=O)[C@H]3CC[C@H](O)CC3)c2)ccc1F [Example 41] | > 400 nM |
| O=C(Nc1cc(F)c(F)c(F)c1)c1ccc(Cl)c(S(=O)(=O)[C@@H]2C[C@H](O)C[C@H](O)C2)c1 [Example 79] | > 400 nM |
| COc1ccc(COC[C@]2(O)CC3CC[C@@H](C2)[C@H]3S(=O)(=O)c2cc(C(=O)Nc3cc(F)c(F)c(F)c3)ccc2Cl)cc1 [Example 315] | < 100 nM |
| O=C(Nc1cc(F)c(F)c(F)c1)c1ccc(Cl)c(S[C@H]2CC[C@H](O)CC2)c1 [Example 10] | 100 to 400 nM |
| COC(=O)C1CON(Cc2ccccc2)C1[C@]1(O)CC2CC[C@@H](C1)[C@H]2S(=O)(=O)c1cc(C(=O)Nc2cc(F)c(F)c(F)c2)ccc1Cl (stereo partly drawn) [Example 213] | > 400 nM |
| O=C1CCC(S(=O)(=O)c2cc(C(=O)Nc3cc(F)c(F)c(F)c3)ccc2Cl)C1 (stereo not drawn) [Example 57] | > 400 nM |
| O=C(Nc1cc(F)c(F)c(F)c1)c1ccc(Cl)c(S(=O)(=O)[C@H]2C3CCC2C[C@H](CN2CCOCC2)C3)c1 [Example 337] | 100 to 400 nM |
| CCO/N=C/[C@]1(O)CC2CC[C@@H](C1)[C@H]2S(=O)(=O)c1cc(C(=O)Nc2cc(F)c(F)c(F)c2)ccc1Cl [Example 202] | < 100 nM |
| O=C(Nc1cc(F)c(F)c(F)c1)c1ccc(Cl)c(S(=O)(=O)[C@H]2CC[C@H](O)CC2)n1 [Example 62] | > 400 nM |
| O=C(Nc1cc(F)c(F)c(F)c1)c1ccc(Cl)c(S(=O)(=O)[C@H]2CC[C@H](CO)CC2)c1 [Example 115] | 100 to 400 nM |
| O=C(Nc1cc(F)c(F)c(F)c1)c1ccc(Cl)c(S(=O)(=O)[C@H]2C3CC[C@H]2C[C@@]2(CO2)C3)c1 [Example 269] | < 100 nM |
| CC(=O)OC[C@]1(OC(C)=O)CC2CC[C@@H](C1)[C@H]2S(=O)(=O)c1cc(C(=O)Nc2cc(F)c(F)c(F)c2)ccc1Cl [Example 185] | < 100 nM |
| CC(CO)NCCOC[C@]1(O)CC2CC[C@@H](C1)[C@H]2S(=O)(=O)c1cc(C(=O)Nc2cc(F)c(F)c(F)c2)ccc1Cl (stereo partly drawn) [Example 358] | 100 to 400 nM |
| [N-]=[N+]=Nc1ccc(C(=O)Nc2cc(F)c(F)c(F)c2)cc1S(=O)(=O)[C@H]1C2CC[C@H]1C[C@](O)(CO)C2 [Example 148] | > 400 nM |
| CCOC(=O)C(C)(C)S(=O)(=O)c1cc(C(=O)Nc2cc(F)c(F)c(F)c2)ccc1Cl [Example 92] | > 400 nM |
| O=C(Nc1cc(F)c(F)c(F)c1)c1ccc(Cl)c(S(=O)(=O)[C@H]2C3CC[C@H]2C[C@](O)(COCC(O)CO)C3)c1 (stereo partly drawn) [Example 327] | 100 to 400 nM |
| O=C(Nc1cc(F)c(F)c(F)c1)c1ccc(Cl)c(SC2CCCCC2)c1 [Example 11] | > 400 nM |
| O=C(Nc1cc(F)c(F)c(F)c1)c1ccc(Cl)c(S(=O)(=O)Cc2cccc[n+]2[O-])c1 [Example 37] | > 400 nM |
| O=C(Nc1cc(F)c(F)c(F)c1)c1ccc(Cl)c(S(=O)(=O)[C@H]2C3CC[C@H]2C[C@](O)(/C=[N+](\[O-])Cc2ccccc2)C3)c1 [Example 199] | 100 to 400 nM |

| SMILES | EC50 |
| --- | --- |
| CS(=O)(=O)OC[C@]1(O)CC2CC[C@@H](C1)[C@H]2S(=O)(=O)c1cc(C(=O)Nc2cc(F)c(F)c(F)c2)ccc1Cl [Example 142] | < 100 nM |
| O=C(Nc1cc(F)c(F)c(F)c1)c1ccc(Cl)c(S(=O)(=O)[C@H]2C3CC[C@H]2C[C@](O)(/C=N/OCc2ccc(F)cc2)C3)c1 [Example 232] | < 100 nM |
| O=C(Nc1cc(F)c(F)c(F)c1)c1ccc(Cl)c(S(=O)(=O)[C@H]2CC3CCC(C2)[C@]3(O)C(O)CO)c1 (stereo partly drawn) [Example 352] | < 100 nM |
| O=C1CCCC(S(=O)(=O)c2cc(C(=O)Nc3cc(F)c(F)c(F)c3)ccc2Cl)CO1 (stereo not drawn) [Example 30] | > 400 nM |
| N#CC1CON(Cc2ccccc2)C1C1=C[C@@H]2CCC(C1)[C@@H]2S(=O)(=O)c1cc(C(=O)Nc2cc(F)c(F)c(F)c2)ccc1Cl (stereo partly drawn) [Example 210] | > 400 nM |
| O=C(Nc1cc(F)c(F)c(F)c1)c1ccc(Cl)c(S(=O)(=O)[C@H]2CC3CCC(C2)[C@@H]3N2CCOCC2)c1 [Example 359] | < 100 nM |
| O=C(Nc1cc(F)c(F)c(F)c1)c1ccc(Cl)c(S(=O)(=O)[C@H]2C3CC[C@H]2C[C@]2(C3)OC(=O)[C@@H](O)[C@@H]2O)c1 [Example 338] | > 400 nM |
| O=C(Nc1cc(F)c(F)c(F)c1)c1ccc(Cl)c(S(=O)(=O)[C@@H]2CC[C@H](O)C2)c1 [Example 31] | 100 to 400 nM |
| COc1ccc(CO/N=C/[C@]2(O)CC3CC[C@@H](C2)[C@H]3S(=O)(=O)c2cc(C(=O)Nc3cc(F)c(F)c(F)c3)ccc2Cl)cc1 [Example 233] | < 100 nM |
| NC(=O)O[C@]1(c2cccnc2)C2CCC1C[C@H](S(=O)(=O)c1cc(C(=O)Nc3cc(F)c(F)c(F)c3)ccc1Cl)C2 [Example 353] | < 100 nM |
| O=C(Nc1cc(F)c(F)c(F)c1)c1ccc(Cl)c(Sc2ccccc2)c1 [Example 71] | > 400 nM |
| CC(=O)OC[C@]1(O)CC2CC[C@@H](C1)[C@H]2S(=O)(=O)c1cc(C(=O)Nc2cc(F)c(F)c(F)c2)ccc1Cl [Example 132] | < 100 nM |
| O=C(Nc1cc(F)c(F)c(F)c1)c1ccc(Cl)c(S(=O)(=O)[C@H]2C3CC[C@H]2C[C@H](c2cc(-c4ccccc4)on2)C3)c1 [Example 239] | < 100 nM |
| O=C(Nc1cc(F)c(F)c(F)c1)c1ccc(Cl)c(S(=O)(=O)[C@H]2C3CC[C@H]2C[C@](O)(C#Cc2ccncc2)C3)c1 [Example 169] | < 100 nM |
| O=C(Nc1ccc(F)c(F)c1)c1ccc(Cl)c(S(=O)(=O)[C@H]2C3CC[C@H]2C[C@](O)(CO)C3)c1 [Example 127] | < 100 nM |
| O=C(Nc1cc(F)c(F)c(F)c1)c1ccc(Cl)c(SCC2CCCCC2)c1 [Example 28] | > 400 nM |
| O=C(Nc1cc(F)c(F)c(F)c1)c1ccc(Cl)c(S(=O)(=O)[C@H]2C3CC[C@H]2C[C@](O)(/C=N/OCc2cccc(F)c2)C3)c1 [Example 236] | 100 to 400 nM |
| O=C(Nc1cc(F)c(F)c(F)c1)c1ccc(Cl)c(S(=O)(=O)[C@H]2C3CC[C@H]2C[C@](O)(C(O)c2ccccc2)C3)c1 (stereo partly drawn) [Example 149] | < 100 nM |

Same assay, conditions: Hepatitis B virus, HePAD38, 120 h, read-out: HepAD38 EC50

| SMILES | EC50 |
| --- | --- |
| C[Si](C)(C)C#C[C@@]1(O)CC2CC[C@@H](C1)[C@H]2S(=O)(=O)c1cc(C(=O)Nc2cc(F)c(F)c(F)c2)ccc1Cl [Example 160] | 100 to 400 nM |
| O=C(Nc1cc(F)c(F)c(F)c1)c1ccc(Cl)c(S(=O)(=O)C2CC3CCC(C2)N3)c1 (stereo not drawn) [Example 266] | 100 to 400 nM |
